Experiments:
Assay type in all cases: in vivo, rat
[1] = tested on: STZ induced diabetic rats; assay: Blood glucose in STZ induced diabetic rats (glucometer, tail vein); details: Glibenclamide 10 mg/kg p.o. daily, n=6
Procedure: (§1) The garlic tablet at the said dosages was subjected to efficacy studies in diabetic animal models. For the efficacy studies on diabetes, studies were carried out using male Wistar albino rats (150-200 g). The animals were grouped and housed in polyacrylic cages with not more than six animals per cage and maintained under standard laboratory conditions (temperature 25°±2° C.) with dark and light cycle (12/12 h). The animals were fed with standard pellet diet supplied by Hindustan Lever Ltd., India and fresh water ad libitum. All the animals were acclimatized to laboratory condition for a week before commencement of experiment. […] were divided into five groups for further experiments.
(§2) Rats were randomly allocated to five groups. Diabetes was induced by a single intraperitoneal injection of 120 mg/kg of Streptozotocin (STZ) in citrate buffer (0.1 M, pH 4.5). Group I consisted of normal healthy rats that were administered 1 ml/kg of 0.5% carboxy methylcellulose (CMC) solution orally. Group II consisted of diabetic rats used as control and were administered orally 1 ml/kg of 0.5% carboxy methylcellulose solution. Groups III consisted of diabetic rats treated daily with oral administration of 10 mg/kg of glibenclamide. Group IV consisted of diabetic rats treated orally with 500 mg of tablet suspended in 0.5% carboxy methylcellulose solution. Group V consisted of diabetic rats treated orally with 1000 mg of tablet suspended in 0.5% carboxy methylcellulose solution.
(§3) All the test drugs were administered for 21 days. Blood glucose levels were estimated on the 1st, 3rd, 7th, 14th and 21st day by collecting tail vein using glucometer during drug treatment. On the 22nd day, the blood was collected for biochemical estimation by sinus puncture under anesthesia. The animals were sacrificed by cervical dislocation and organs were removed for histopathological studies.

[2] = Body weight development in STZ diabetic rats; details: Glibenclamide 10 mg/kg p.o. (Group III), ± S.E, n=6
Procedure: as §1
as §2, with “Group V consisted of diabetic rats treated orally with 1000 mg of tablet suspended in 0.5% carboxy methylcellulose solution.” left out

STZ diabetic rats [3] = assay: Serum total protein, creatinine and uric acid in STZ diabetic rats; details: Glibenclamide 10 mg/kg p.o. (Group III), 21 days, ± S.E, n=6
Procedure: as §1, §2, §3

STZ diabetic rats [4] = assay: Hemoglobin, glycosylated hemoglobin and plasma insulin in STZ diabetic rats; details: Glibenclamide 10 mg/kg p.o. (Group III), 21 days, ± S.E, n=6
Procedure: as §1
as §2, with “Group V consisted of diabetic rats treated orally with 1000 mg of tablet suspended in 0.5% carboxy methylcellulose solution.” left out

STZ diabetic rats [5] = assay: Serum AST, ALT and ALP in STZ diabetic rats; details: Glibenclamide 10 mg/kg p.o. (Group III), 21 days, ± S.E, n=6
Procedure: as §1, §2, §3

SMILES: COc1ccc(Cl)cc1C(=O)NCCc1ccc(S(=O)(=O)NC(=O)NC2CCCCC2)cc1 [Glibenclamide, glibenclamide]
- Blood Sugar, 1 Day ([1]; day 1, mean): 290.50 mg/dL
- Blood Sugar, 3 Day ([1]; day 3, mean): 210.17 mg/dL
- Blood Sugar, 7 Day ([1]; day 7, mean): 157.67 mg/dL
- Blood Sugar, 14 Day ([1]; day 14, mean): 124.50 mg/dL
- Blood Sugar, 21 Day ([1]; day 21, mean): 113.17 mg/dL
- Body Weight Final ([2]; 21 days): 161.13 ± 2.14^b* g
- Body Weight Initial [2]: 163.6 ± 1.42 g
- Creatinine (STZ diabetic rats [3]): 1.04 ± 0.01^b** mg/dl
- Protein (STZ diabetic rats [3]): 126.4 ± 2.84^b*** mg/dl
- Uric acid (STZ diabetic rats [3]): 1.57 ± 0.06^b*** mg/dl
- HBA1C (STZ diabetic rats [4]): 0.17 ± 0.008^b*** % Hb
- Plasma Insulin (STZ diabetic rats [4]): 16.4 ± 0.27^b*** μU/ml
- ALP (STZ diabetic rats [5]): 171.9 ± 4.07 ^b*** μmoles of phenol liberated/min/mg of protein
- ALT (STZ diabetic rats [5]): 56.4 ± 1.54 ^b*** μmoles of pyruvate/h/mg/of protein
- AST (STZ diabetic rats [5]): 161.0 ± 64.0 ^b*** μmoles of pyruvate/h/mg/of protein
